Results taken from ChEMBL document CHEMBL1130909, “General construction pattern of histamine H3-receptor antagonists: change of a paradigm” (Bioorg Med Chem Lett, 1998).

Molecular target: Histamine H3 receptor (Rattus norvegicus, UniProt Q9QYN8)
Assay: In vitro Histamine H3 receptor antagonist activity in an assay with K+-evoked depolarization-induced release of [3H]histamine from synaptosomes of rat cerebral cortex
Type: functional, subcellular, Brain

Sequence of Histamine H3 receptor (Q9QYN8 whole entry): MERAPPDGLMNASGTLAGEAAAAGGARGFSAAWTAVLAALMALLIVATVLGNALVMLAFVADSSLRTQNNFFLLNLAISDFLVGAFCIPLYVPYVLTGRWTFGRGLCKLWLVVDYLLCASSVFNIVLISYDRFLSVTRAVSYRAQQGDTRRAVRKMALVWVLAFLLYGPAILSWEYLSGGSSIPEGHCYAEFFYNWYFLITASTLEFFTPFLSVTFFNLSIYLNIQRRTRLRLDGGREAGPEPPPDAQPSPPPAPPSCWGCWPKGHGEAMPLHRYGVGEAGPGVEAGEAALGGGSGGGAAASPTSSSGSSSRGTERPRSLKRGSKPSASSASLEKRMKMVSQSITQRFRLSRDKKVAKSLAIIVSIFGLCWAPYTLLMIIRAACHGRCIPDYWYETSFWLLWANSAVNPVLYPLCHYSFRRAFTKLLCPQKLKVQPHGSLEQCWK

C(=C\CCc1c[nH]cn1)/CCc1ccccc1
Ki: 42 nM

CCCCCCCCCc1c[nH]cn1
Ki: 400 nM

CCCCCCC/C=C\c1c[nH]cn1
Ki: > 500 nM
